# System: GDF8 signaling (p-SMAD-3 (Ser423/425))
# Assay: AlphaScreen SureFire SMAD3 (p-Ser423/425) assay, GDF8-stimulated cells (GDF pSMAD)
# Type: cell-based
# Conditions: GDF8-stimulated pSMAD3, MPC11; tested as the salt form given; read-out: GDF pSMAD (MPC11) (μM), inhibition of GDF8 signaling
row,IC50,SMILES
1,0.2 µM,CN(C)CCNc1ncnc2ccc(-c3cccnc3-c3cc(Cl)ccc3F)cc12 [compound 1093]

# Same assay, conditions: Mus musculus, MPC-11, GDF8-stimulated pSMAD3, MPC11; tested as the salt form given; read-out: GDF pSMAD (MPC11) (μM), inhibition of GDF8 signaling
row,IC50,SMILES
1,5.45 µM,"Cc1ccc(O)cc1-c1ncccc1-c1ccc2ncnc(N)c2c1 [compound 1005, 3-(3-(4-aminoquinazolin-6-yl)pyridin-2-yl)-4-methylphenol]"
2,2.08 µM,"Nc1ncnc2ccc(-c3cccnc3-c3cc(OC(F)F)ccc3Cl)cc12 [compound 1017, 6-(2-(2-chloro-5-(difluoromethoxy)phenyl)pyridin-3-yl)quinazolin-4-amine]"
3,0.562 µM,"Nc1ncnc2ccc(-c3cccnc3-c3ccc(F)c(OC(F)F)c3)cc12 [compound 1010, 6-(2-(3-(difluoromethoxy)-4-fluorophenyl)pyridin-3-yl)quinazolin-4-amine]"
4,6.5 µM,"Nc1ncnc2ccc(-c3cc(F)cnc3-c3cccc(O)c3)cc12 [compound 1000, 3-(3-(4-aminoquinazolin-6-yl)-5-fluoropyridin-2-yl)phenol]"
5,0.486 µM,"COc1cnc(-c2cc(Cl)ccc2F)c(-c2ccc3ncnc(N)c3c2)c1 [compound 993, 6-(2-(5-chloro-2-fluorophenyl)-5-methoxypyridin-3-yl)quinazolin-4-amine]"
6,0.737 µM,Fc1cc(-c2ncccc2-c2ccc3ncsc3c2)c(F)c(F)c1F [compound 1054]

# Same assay, conditions: Mus musculus, MPC-11, MPC11; GDF8-stimulated; p-SMAD3 AlphaScreen; read-out: GDF pSMAD (MPC11) (inhibition of GDF8 signaling)
row,IC50,SMILES
1,0.175 µM,"Cn1cnc2ccc(-c3cccnc3-c3cccc(OC(F)F)c3)cc21 [compound 963, 6-(2-(3-(Difluoromethoxy)phenyl)pyridin-3-yl)-1-methyl-1H-benzo[d]imidazole]"
2,0.938 µM,"Nc1ncnc2ccc(-c3cccnc3-c3cc(O)cc(Cl)c3)cc12 [compound 493, 3-(3-(4-Aminoquinazolin-6-yl)pyridin-2-yl)-5-chlorophenol]"
3,0.879 µM,"Nc1n[nH]c2cc(-c3cccnc3-c3ccc(F)c(Cl)c3)ccc12 [compound 800, 6-(2-(3-Chloro-4-fluorophenyl)pyridin-3-yl)-1H-indazol-3-amine]"
4,0.426 µM,"Fc1ccc(-c2ncccc2-c2ccn3nccc3c2)cc1Cl [compound 758, 5-(2-(3-Chloro-4-fluorophenyl)pyridin-3-yl)pyrazolo[1,5-a]pyridine]"
5,6.31 µM,"Cc1cc(-c2ncccc2-c2ccc3ncc(C(=O)N4CCN(C)CC4)n3c2)ccc1F [compound 581, (6-(2-(4-Fluoro-3-methylphenyl)pyridin-3-yl)imidazo[1,2-a]pyridin-3-yl)(4-methylpiperazin-1-yl)methanone]"
6,0.447 µM,"Cc1ccc(F)c(-c2ncccc2-c2ccc3ncnn3c2)c1 [compound 748, 6-(2-(2-Fluoro-5-methylphenyl)pyridin-3-yl)-[1,2,4]triazolo[1,5-a]pyridine]"
7,0.253 µM,"CNc1ncnc2ccc(-c3cccnc3-c3ccc(F)c(Cl)c3)cc12 [compound 886, 6-(2-(3-Chloro-4-fluorophenyl)pyridin-3-yl)-N-methylquinazolin-4-amine]"
8,0.622 µM,"FC(F)Oc1cccc(-c2ncccc2-c2ccc3nccnc3c2)c1 [compound 962, 6-(2-(3-(Difluoromethoxy)phenyl)pyridin-3-yl)quinoxaline]"
9,16.4 µM,"Cc1cccc(-c2ncccc2-c2ccc3nccc(N4CCOCC4)c3c2)c1 [compound 548, 4-(6-(2-(m-Tolyl)pyridin-3-yl)quinolin-4-yl)morpholine]"
10,0.0639 µM,"CN1CCC(NC(=O)c2cnc3ccc(-c4cccnc4-c4cc(Cl)ccc4F)cn23)CC1 [compound 722, 6-(2-(5-Chloro-2-fluorophenyl)pyridin-3-yl)-N-(1-methylpiperidin-4-yl)imidazo[1,2-a]pyridine-3-carboxamide]"
11,0.107 µM,"Nc1ncnc2ccc(-c3cccnc3-c3cc(O)cc(F)c3)cc12 [compound 494, 3-(3-(4-Aminoquinazolin-6-yl)pyridin-2-yl)-5-fluorophenol]"
12,0.694 µM,"Clc1cccc(-c2ncccc2-c2ccn3ncnc3c2)c1 [compound 734, 7-(2-(3-Chlorophenyl)pyridin-3-yl)-[1,2,4]triazolo[1,5-a]pyridine]"
13,0.391 µM,"Cc1cc(-c2ncccc2-c2ccc3ncnn3n2)ccc1F [compound 952, 6-(2-(4-Fluoro-3-methylphenyl)pyridin-3-yl)-[1,2,4]triazolo[1,5-b]pyridazine]"
14,9.64 µM,"Fc1cccc(-c2ncccc2-c2ccc3ncsc3c2)c1F [compound 662, 6-(2-(2,3-Difluorophenyl)pyridin-3-yl)benzo[d]thiazole]"
15,9.22 µM,"Nc1ncnc2ccc(-c3cccnc3-c3ccccc3Cl)cc12 [compound 497, 6-(2-(2-Chlorophenyl)pyridin-3-yl)quinazolin-4-amine]"
16,0.363 µM,"FC(F)(F)c1cnc2ccc(-c3cccnc3-c3cccc(C4CC4)c3)cn12 [compound 556, 6-(2-(3-Cyclopropylphenyl)pyridin-3-yl)-3-(trifluoromethyl)imidazo[1,2-a]pyridine]"
17,3.93 µM,"N#Cc1cnc2ccc(-c3cccnc3-c3cccc(F)c3)cn12 [compound 621, 6-(2-(3-Fluorophenyl)pyridin-3-yl)imidazo[1,2-a]pyridine-3-carbonitrile]"
18,11.3 µM,"Cc1cc(-c2ncccc2-c2ccc3c(cnn3C(=O)NCCN(C)C)c2)ccc1F [compound 633, N-(2-(Dimethylamino)ethyl)-5-(2-(4-fluoro-3-methylphenyl)pyridin-3-yl)-1H-indazole-1-carboxamide]"

# The next lines start with the molecule.
row,SMILES,IC50
1,"Cc1cc(-c2ncc(Nc3ccc(C(N)=O)cc3)cc2-c2ccc3ncsc3c2)ccc1F [compound 310, 4-((5-(Benzo[d]thiazol-6-yl)-6-(4-fluoro-3-methylphenyl)pyridin-3-yl)amino)benzamide]",1.14 µM
2,"Cc1cc(C)cc(-c2ncccc2-c2ccc3[nH]ncc3c2)c1 [Compound 71, 5-[2-(3,5-Dimethylphenyl)pyridin-3-yl]-1H-indazole]",7.01 µM
3,"Cc1cc(-c2ncc(CN3CCN(C)CC3)cc2-c2ccc3nccnc3c2)ccc1F [compound 230, 6-(2-(4-Fluoro-3-methylphenyl)-5-((4-methylpiperazin-1-yl)methyl)pyridin-3-yl)quinoxaline]",10.8 µM
4,"Cc1cc(-c2ncc(NC3CC3)cc2-c2ccc3[nH]ncc3c2)ccc1F [compound 212, N-Cyclopropyl-6-(4-fluoro-3-methylphenyl)-5-(1H-indazol-5-yl)pyridin-3-amine]",18.4 µM
5,"OCc1cccc(-c2ncccc2-c2ccc3[nH]ncc3c2)c1 [Compound 91, [3-(3-(1H-Indazol-5-yl)pyridin-2-yl)phenyl]methanol]",3.03 µM
6,"Fc1ccc(-c2ncccc2-c2cnc3[nH]ncc3c2)cc1F [Compound 77, 5-(2-(3,4-Difluorophenyl)pyridin-3-yl)-1H-pyrazolo[3,4-b]pyridine]",3.65 µM
7,"Nc1ncnc2ccc(-c3cccnc3-c3cccc(Cl)c3)cc12 [compound 393, 6-(2-(3-Chlorophenyl)pyridin-3-yl)quinazolin-4-amine]",0.07 µM
8,"COC(=O)c1cc(-c2cccnc2-c2ccc(F)c(C)c2)cc2cn[nH]c12 [compound 190, Methyl 5-(2-(4-fluoro-3-methylphenyl)pyridin-3-yl)-1H-indazole-7-carboxylate]",1.55 µM
9,"Cc1cc(-c2nc(N)ccc2-c2ccc3ncsc3c2)ccc1F [Compound 27, 5-(Benzo[d]thiazol-6-yl)-6-(4-fluoro-3-methylphenyl)pyridin-2-amine]",0.453 µM
10,"Cc1cccc(-c2ncc(NS(C)(=O)=O)cc2-c2ccc3[nH]ncc3c2)c1 [Compound 32, N-(5-(1H-Indazol-5-yl)-6-m-tolylpyridin-3-yl) methanesulfonamide]",2.8 µM
11,"COCc1cnc(-c2ccc(F)c(C)c2)c(-c2ccc3nccnc3c2)c1 [compound 228, 6-(2-(4-Fluoro-3-methylphenyl)-5-(methoxymethyl)pyridin-3-yl)quinoxaline]",9.76 µM
12,"COc1cccc(-c2ncccc2-c2ccc3nccn3c2)c1 [Compound 52, 6-(2-(3-Methoxyphenyl)pyridin-3-yl)imidazo[1,2-a]pyridine]",1.4 µM
13,"Cc1ccc(CNc2cnc(-c3ccc(F)c(C)c3)c(-c3ccc4ncsc4c3)c2)cn1 [compound 334, 5-(Benzo[d]thiazol-6-yl)-6-(4-fluoro-3-methylphenyl)-N-((6-methylpyridin-3-yl)methyl)pyridin-3-amine]",0.373 µM
14,"Cc1cc(-c2ncccc2-c2ccc3ncnc(NCc4ccncc4)c3c2)ccc1F [compound 415, 6-(2-(4-Fluoro-3-methylphenyl)pyridin-3-yl)-N-(pyridin-4-ylmethyl)quinazolin-4-amine]",11.8 µM
15,"Cc1cc(-c2ncc(CN3CCOCC3)cc2-c2ccc3nccnc3c2)ccc1F [compound 225, 4-((6-(4-Fluoro-3-methylphenyl)-5-(quinoxalin-6-yl)pyridin-3-yl)methyl)morpholine]",9.46 µM
16,"Fc1ccc(-c2ncccc2-c2ccc3nccn3c2)cc1C1CC1 [compound 218, 6-(2-(3-Cyclopropyl-4-fluorophenyl)pyridin-3-yl)imidazo[1,2-a]pyridine]",0.446 µM
17,"Cn1cnc2ccc(-c3cccnc3-c3cccc4cccnc34)cc2c1=O [compound 382, 3-Methyl-6-(2-(quinolin-8-yl)pyridin-3-yl)quinazolin-4(3H)-one]",14.8 µM
18,"COc1ccc(-c2ncccc2-c2ccc3[nH]ncc3c2)cc1 [Compound 118, 5-(2-(4-Methoxyphenyl)pyridin-3-yl)-1H-indazole]",3.79 µM
19,"Cc1cc(-c2ncccc2-c2ccc3ncnc(OCCN4CCCC4)c3c2)ccc1F [compound 443, 6-(2-(4-Fluoro-3-methylphenyl)pyridin-3-yl)-4-(2-(pyrrolidin-1-yl)ethoxy)quinazoline]",0.429 µM
20,"Cc1cc(-c2ncc(N)cc2-c2ccc3[nH]ncc3c2)ccc1F [Compound 17, 6-(4-Fluoro-3-methylphenyl)-5-(1H-indazol-5-yl)pyridin-3-amine]",0.336 µM
21,"CC(C)NC(=O)Nc1cnc(-c2cccc(C3CC3)c2)c(-c2ccc3[nH]ncc3c2)c1 [compound 213, 1-(6-(3-Cyclopropylphenyl)-5-(1H-indazol-5-yl)pyridin-3-yl)-3-isopropylurea]",4.44 µM
